From US20140005177A1, “PYRIDINYL- AND PYRAZINYL-METHYLOXY-ARYL DERIVATIVES USEFUL AS INHIBITORS OF SPLEEN TYROSINE KINASE (SYK)” (GLAXO GROUP LIMITED, priority 2011, published 2014)
Structures can show the parent of a compound that is named as a salt.

tested on: Ramos B cells; experiment: Ramos pErk assay (anti-IgM stimulated B cells, pErk MSD); format: cell-based; conditions: Homo sapiens, Ramos, anti-IgM 5 μg/ml, pErk readout, read-out: average pIC50 (converted)
Protocol: Ramos B cells (human B cells of Burkitt's Lymphoma) are stimulated using anti-IgM. […] The subsequent autophosphorylation of Syk leads to initiation of a signalling cascade resulting in B cell activation via the Erk MAP Kinase pathway. As a result Erk is phosphorylated and following cell lysis is detected by an immune capture assay.
Cells were plated at a density of 2.5×10^5/well in a volume of 25 μl assay medium (RPMI containing 10% heat inactivated foetal calf serum, 1% L-glutamine) in 96 v-well polypropylene plates. 25 μl appropriately diluted compound solution was added and the plate incubated for 30 min at 37° C. with 5% CO2. Cells were stimulated with 5 μl Fab′2 fragments of goat anti-human IgM (5 μg/ml final) for 7 min at 37° C. Cells are lysed by the addition of 55 μL 2×RIPA lysis buffer for 2 h at 4° C. Lysate may be frozen at this point at −80° C.
50 μl cell lysate was transferred to a 96 well MSD plate coated with anti-pErk1/2 (Thr/Tyr: 202/204; 185/187) capture antibody and incubated for 16 hours at 4° C. or 3 hours at room temperature. The plate was washed and an anti-pErk detection antibody added (25 μl/well) for 1 hour at room temperature. This was removed, 150 μL MSD read buffer added and the resultant electrochemiluminescence signal measured.
Compound was prepared as a 10 mM stock in DMSO and a dilution series prepared in DMSO using 9 successive 5-fold dilutions. This dilution series was diluted a further 1:100 with assay medium to give the final concentration range to be tested of 5×10^−5 to 2.56×10^−11M. Compound dilutions were prepared using the Biomek 2000 and Biomek Nx automated robotic pipetting systems.

Row | Compound | IC50
1 | COc1cccc(OCc2cc(C)ccn2)c1-c1ccc2c(c1)CCNCC2 [Example 2, 7-(2-(methyloxy)-6-{[(4-methyl-2-pyridinyl)methyl]oxy}phenyl)-2,3,4,5-tetrahydro-1H-3-benzazepine] | 158 to 6310 nM
2 | COc1ccc(-c2ccc3c(c2)CCNCC3)c(OCc2cc(C)ccn2)c1 [Example 3, 7-(4-(methyloxy)-2-{[(4-methyl-2-pyridinyl)methyl]oxy}phenyl)-2,3,4,5-tetrahydro-1H-3-benzazepine] | 158 to 6310 nM
3 | Cc1ccnc(COc2ccc(F)cc2-c2ccc3c(c2)CNCC3)c1 [Example 6, 7-(5-fluoro-2-{[(4-methyl-2-pyridinyl)methyl]oxy}phenyl)-1,2,3,4-tetrahydroisoquinoline] | 158 to 6310 nM
4 | COc1ccnc(COc2ccccc2-c2ccc3c(c2)CCNCC3)c1 [Example 7, 7-[2-({[4-(methyloxy)-2-pyridinyl]methyl}oxy)phenyl]-2,3,4,5-tetrahydro-1H-3-benzazepine] | 158 to 6310 nM
5 | Cc1ccnc(COc2ccc(C)cc2-c2ccc3c(c2)CNCC3)c1 [Example 10, 7-(5-methyl-2-{[(4-methyl-2-pyridinyl)methyl]oxy}phenyl)-1,2,3,4-tetrahydroisoquinoline] | 158 to 6310 nM
6 | COc1cccc(OCc2cc(C)ccn2)c1-c1ccc2c(c1)CNCC2 [Example 11, 7-(2-(methyloxy)-6-{[(4-methyl-2-pyridinyl)methyl]oxy}phenyl)-1,2,3,4-tetrahydroisoquinoline] | 158 to 6310 nM
7 | CCOc1ccc(OCc2cc(C)ccn2)c(-c2ccc3c(c2)CNCC3)c1 [Example 12, 7-(5-(ethyloxy)-2-{[(4-methyl-2-pyridinyl)methyl]oxy}phenyl)-1,2,3,4-tetrahydroisoquinoline] | 158 to 6310 nM
8 | Cc1ccnc(COc2ccc(C(F)(F)F)cc2-c2ccc3c(c2)CNCC3)c1 [Example 15, 7-[2-{[(4-methyl-2-pyridinyl)methyl]oxy}-5-(trifluoromethyl)phenyl]-1,2,3,4-tetrahydroisoquinoline] | 158 to 6310 nM
9 | COc1ccc(OCc2cc(C)ccn2)c(-c2ccc3c(c2)CNCC3)c1 [Example 16, 7-(5-(methyloxy)-2-{[(4-methyl-2-pyridinyl)methyl]oxy}phenyl)-1,2,3,4-tetrahydroisoquinoline] | 158 to 6310 nM
10 | Cc1ccnc(COc2ccc(C(C)(C)C)cc2-c2ccc3c(c2)CNCC3)c1 [Example 17, 7-(5-(1,1-dimethylethyl)-2-{[(4-methyl-2-pyridinyl)methyl]oxy}phenyl)-1,2,3,4-tetrahydroisoquinoline] | 158 to 6310 nM
11 | Cc1ccnc(COc2ccc(C)nc2-c2ccc3c(c2)CCNCC3)c1 [Example 19, 7-(6-methyl-3-{[(4-methyl-2-pyridinyl)methyl]oxy}-2-pyridinyl)-2,3,4,5-tetrahydro-1H-3-benzazepine, trifluoroacetate] | 158 to 6310 nM
12 | COc1ccc(OCc2cnccn2)c(-c2ccc3c(c2)CCNCC3)c1 [Example 20, 7-{5-(methyloxy)-2-[(2-pyrazinylmethyl)oxy]phenyl}-2,3,4,5-tetrahydro-1H-3-benzazepine, trifluoroacetate] | 158 to 6310 nM
13 | COc1ccc(OCc2cc(C)ccn2)c(-c2ccc3c(c2)CCNCC3)c1 [Example 22, 7-(5-(methyloxy)-2-{[(4-methyl-2-pyridinyl)methyl]oxy}phenyl)-2,3,4,5-tetrahydro-1H-3-benzazepine, trifluoroacetate] | 158 to 6310 nM
14 | CC(=O)c1ccc(OCc2cc(C)ccn2)c(-c2ccc3c(c2)CCNCC3)c1 [Example 24, 1-[4-{[(4-methyl-2-pyridinyl)methyl]oxy}-3-(2,3,4,5-tetrahydro-1H-3-benzazepin-7-yl)phenyl]ethanone, trifluoroacetate] | 158 to 6310 nM
15 | Cc1ccnc(COc2ccc(F)cc2-c2ccc3c(c2)CCNCC3)c1 [Example 26, 7-(5-fluoro-2-{[(4-methyl-2-pyridinyl)methyl]oxy}phenyl)-2,3,4,5-tetrahydro-1H-3-benzazepine] | 158 to 6310 nM
16 | Cc1ccnc(COc2ccc(C)cc2-c2ccc3c(c2)CCNCC3)c1 [Example 27, 7-(5-methyl-2-{[(4-methyl-2-pyridinyl)methyl]oxy}phenyl)-2,3,4,5-tetrahydro-1H-3-benzazepine] | 158 to 6310 nM
17 | CCOc1ccc(OCc2cc(C)ccn2)c(-c2ccc3c(c2)CCNCC3)c1 [Example 28, 7-(5-(ethyloxy)-2-{[(4-methyl-2-pyridinyl)methyl]oxy}phenyl)-2,3,4,5-tetrahydro-1H-3-benzazepine] | 158 to 6310 nM
18 | Cc1ccnc(COc2ccc(C#N)cc2-c2ccc3c(c2)CCNCC3)c1 [Example 30, 4-{[(4-methyl-2-pyridinyl)methyl]oxy}-3-(2,3,4,5-tetrahydro-1H-3-benzazepin-7-yl)benzonitrile] | 158 to 6310 nM
19 | Cc1ccnc(COc2ccc(C(F)(F)F)cc2-c2ccc3c(c2)CCNCC3)c1 [Example 31, 7-[2-{[(4-methyl-2-pyridinyl)methyl]oxy}-5-(trifluoromethyl)phenyl]-2,3,4,5-tetrahydro-1H-3-benzazepine] | 158 to 6310 nM
20 | Cc1ccnc(COc2ccc(C(C)(C)C)cc2-c2ccc3c(c2)CCNCC3)c1 [Example 32, 7-(5-(1,1-dimethylethyl)-2-{[(4-methyl-2-pyridinyl)methyl]oxy}phenyl)-2,3,4,5-tetrahydro-1H-3-benzazepine] | 158 to 6310 nM
21 | CCc1ccnc(COc2ccc(C)nc2-c2ccc3c(c2)CCNCC3)c1 [Example 33, 7-(3-{[(4-ethyl-2-pyridinyl)methyl]oxy}-6-methyl-2-pyridinyl)-2,3,4,5-tetrahydro-1H-3-benzazepine] | 158 to 6310 nM
22 | Cc1ccnc(COc2ccc(C(C)(C)C)nc2-c2ccc3c(c2)CCNCC3)c1 [Example 34, 7-(6-(1,1-dimethylethyl)-3-{[(4-methyl-2-pyridinyl)methyl]oxy}-2-pyridinyl)-2,3,4,5-tetrahydro-1H-3-benzazepine] | 158 to 6310 nM
23 | CCc1ccnc(COc2ccc(C(C)=O)cc2-c2ccc3c(c2)CCNCC3)c1 [Example 35, 1-[4-{[(4-ethyl-2-pyridinyl)methyl]oxy}-3-(2,3,4,5-tetrahydro-1H-3-benzazepin-7-yl)phenyl]ethanone] | 158 to 6310 nM
24 | CCOc1ccnc(COc2ccc(C(C)=O)cc2-c2ccc3c(c2)CCNCC3)c1 [Example 36, 1-[4-({[4-(ethyloxy)-2-pyridinyl]methyl}oxy)-3-(2,3,4,5-tetrahydro-1H-3-benzazepin-7-yl)phenyl]ethanone] | 158 to 6310 nM
25 | COc1ccc(OCc2ccccn2)c(-c2ccc3c(c2)CCNCC3)c1 [Example 37, 7-{5-(methyloxy)-2-[(2-pyridinylmethyl)oxy]phenyl}-2,3,4,5-tetrahydro-1H-3-benzazepine] | 158 to 6310 nM
26 | CC(=O)c1ccc(OCc2ccccn2)c(-c2ccc3c(c2)CNCC3)c1 [Example 38, 1-[4-[(2-pyridinylmethyl)oxy]-3-(1,2,3,4-tetrahydro-7-isoquinolinyl)phenyl]ethanone] | 158 to 6310 nM
27 | CNC(=O)c1ccc(OCc2cc(C)ccn2)c(-c2ccc3c(c2)CCNCC3)c1 [Example 39, N-methyl-4-{[(4-methyl-2-pyridinyl)methyl]oxy}-3-(2,3,4,5-tetrahydro-1H-3-benzazepin-7-yl)benzamide] | 158 to 6310 nM

same assay, conditions: Homo sapiens, anti-IgM 5 μg/ml, pErk readout, read-out: average pIC50 (converted)

Row | Compound | IC50
28 | COc1cccc(OCc2cc(C)ccn2)c1-c1ccc2c(c1)CCNCC2 [Example 2, 7-(2-(methyloxy)-6-{[(4-methyl-2-pyridinyl)methyl]oxy}phenyl)-2,3,4,5-tetrahydro-1H-3-benzazepine] | ≤ 1000 nM
29 | COc1ccc(-c2ccc3c(c2)CCNCC3)c(OCc2cc(C)ccn2)c1 [Example 3, 7-(4-(methyloxy)-2-{[(4-methyl-2-pyridinyl)methyl]oxy}phenyl)-2,3,4,5-tetrahydro-1H-3-benzazepine] | ≤ 1000 nM
30 | CC(=O)c1ccc(OCc2cc(C)ccn2)c(-c2ccc3c(c2)CCNCC3)c1 [Example 4, 1-[4-{[(4-methyl-2-pyridinyl)methyl]oxy}-3-(2,3,4,5-tetrahydro-1H-3-benzazepin-7-yl)phenyl]ethanone] | ≤ 1000 nM
